The source of these data is patent US9642889B2, “Macrocyclic inhibitors of Flaviviridae viruses” (Selcia Limited, priority 2012, dated 2017).

Assay [1] concerns Huh-7 HCV replicon cells (1b replicon). Nature of the assay: anti-HCV activity in Huh-7 cell line harboring a HCV replicon (luciferase readout). It counts as cell-based. The note with it: for EC50: inhibition of viral replication, Huh-7 HCV replicon cells, 3 days, read-out: EC50; for inhibition at 1 µM: Huh-7, read-out: Replicon 1b % inhibition at 1 μM, 1b replicon, 1 μM compound.

In another assay the target is cyclophilin A (Homo sapiens, UniProt P62937). Nature of the assay: Cyclophilin A TR-FRET competitive binding assay. The note with it: competition with CsA-Cy5 for His-tagged CypA, two-hour incubation. On the procedure:
Cyclophilin A TR-FRET Competitive Binding Assay
Inhibitor potency was measured using a competitive binding assay with a time-resolved fluorescence resonance energy transfer (TR-FRET) readout. […] An IC50 value was calculated using a four-parameter logistic fit.
(TR-FRET usually uses a lanthanide donor and a delayed reading to cut background.)

Each structure is given as a SMILES string. Where two headings read alike, the source gives them in different places.

Chain of cyclophilin A (P62937 whole entry, species assumed): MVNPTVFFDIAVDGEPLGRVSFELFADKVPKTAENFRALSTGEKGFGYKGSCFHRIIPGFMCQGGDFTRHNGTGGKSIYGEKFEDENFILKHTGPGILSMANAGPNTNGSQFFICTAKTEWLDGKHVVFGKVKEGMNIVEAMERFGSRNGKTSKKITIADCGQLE

One may read the EC50 as the midpoint of the concentration-response curve. The term IC50 denotes the concentration that inhibits the measured activity by half. A higher IC50 goes with weaker potency in that assay. Take `CC1NC(=O)C(C2CC2)OC(=O)C2(C=Cc3ccc4ccc(nc4c3)C(C)NC(=O)C3CCCN(N3)C1=O)CCC(O)C2` (single isomer, unassigned) [Compound 105]: the “Replicon 1b % inhibition at 1 μM” value in assay [1] (1b replicon, 1 μM compound, 1 µM) was 2%. Further, in assay [1], the EC50 lay within 1100 to 10000 nM. Also, at cyclophilin A, the IC50 is 101 to 1000 nM.
By inhibition is commonly meant the drop in the measured response relative to a control, in per cent. As for `CO[C@@H]1CC/C=C/c2cccc(c2)[C@@H](C)NC(=O)[C@@H]2CCCN(N2)C(=O)[C@H](C)NC(=O)[C@H](C(C)C)OC(=O)[C@@H]1C` [Compound 1], in assay [1] (Hepatitis C virus, Huh-7, 72 h), the EC50 was below 1000 nM. Further, the inhibition at 1 µM in assay [1] (Hepatitis C virus) stood at 97%. Further, the IC50 on cyclophilin A was below 100 nM.
On the same counts, the results for `CO[C@@H]1/C=C/c2cc3cc(ccc3cn2)[C@@H](C)NC(=O)[C@@H]2CCCN(N2)C(=O)[C@H](C)NC(=O)[C@H](C(C)C)OC(=O)[C@@H]1C` [Compound 2] are below 1000 nM, 98% and below 100 nM.
`CC(C)[C@@H]1OC(=O)C/C=C/c2cc3cc(ccc3cn2)[C@@H](C)NC(=O)[C@@H]2CCCN(N2)C(=O)[C@H](C)NC1=O` [Compound 3]: the EC50 in assay [1] (Hepatitis C virus, Huh-7, 72 h) is below 1000 nM. Besides, in assay [1] (Hepatitis C virus), the inhibition at 1 µM is 89%. On cyclophilin A, this compound gave an IC50 below 100 nM.
On the same counts, the results for `CCC[C@@H]1C/C=C/c2cc3cc(ccc3cn2)[C@@H](C)NC(=O)[C@@H]2CCCN(N2)C(=O)[C@H](C)NC(=O)[C@H](C(C)C)OC1=O` [Compound 4] are below 1000 nM, 100% and below 100 nM.
Turning to `CC1/C=C/c2cc3cc(ccc3cn2)[C@@H](C)NC(=O)[C@@H]2CCCN(N2)C(=O)[C@H](C)NC(=O)[C@H](C(C)C)OC1=O` (stereo partly drawn) [Compound 5], the concentration giving a half-maximal response (EC50) in assay [1] (Hepatitis C virus, Huh-7, 72 h) is below 1000 nM. Besides, the inhibition at 1 µM in assay [1] (Hepatitis C virus) was 93%. On cyclophilin A, this compound showed an IC50 below 100 nM.
Taken in the same sequence, the figures for `CC(C)[C@@H]1OC(=O)CCc2ccc(cc2)-c2cccc(c2)[C@@H](C)NC(=O)[C@@H]2CCCN(N2)C(=O)[C@H](C)NC1=O` [Compound 6] were below 1000 nM, 94% and below 100 nM.
Taken in the same sequence, the figures for `CC(C)[C@@H]1OC(=O)[C@H](C)[C@H](O)CC/C=C/c2cccc(c2)[C@@H](C)NC(=O)[C@@H]2CCCN(N2)C(=O)[C@H](C)NC1=O` [Compound 7, (E)-(2R,5S,11S,14S,17R,18R)-18-Hydroxy-14-isopropyl-2,11,17-trimethyl-15-oxa-3,9,12,28-tetraaza-tricyclo[21.3.1.1*5,9*]octacosa-1(26),21,23(27),24-tetraene 4,10,13,16-tetraone] were below 1000 nM, 94% and below 100 nM.
Taken in the same sequence, the figures for `CCC[C@@H]1CCCc2cc3cc(ccc3cn2)[C@@H](C)NC(=O)[C@@H]2CCCN(N2)C(=O)[C@H](C)NC(=O)[C@H](C(C)C)OC1=O` [Compound 9] were below 1000 nM, 100% and below 100 nM.
In the case of `CC(C)[C@@H]1OC(=O)[C@H](C)[C@H](O)CCCCc2cccc(c2)[C@@H](C)NC(=O)[C@@H]2CCCN(N2)C(=O)[C@H](C)NC1=O` [Compound 10, (2R,5S,11S,14S,17R,18R)-18-Hydroxy-14-isopropyl-2,11,17-trimethyl-15-oxa-3,9,12,28-tetraaza-tricyclo[21.3.1.1*5,9*]octacosa-1(26),23(27),24-triene-4,10,13,16-tetraone], in assay [1] (Hepatitis C virus, Huh-7, 72 h), the 50% effective concentration (EC50) was below 1000 nM. Further, the inhibition at 1 µM in assay [1] (Hepatitis C virus) turned out to be 92%. On cyclophilin A, this compound registered an IC50 below 100 nM.
On the same counts, the results for `CC1/C=C/c2cc3cc(ccc3cn2)[C@@H](C)NC(=O)[C@@H]2CCCN(N2)C(=O)[C@H](C)NC(=O)[C@H](C(C)C)OC(=O)C1C` (stereo partly drawn) [Compound 11] are below 1000 nM, 96% and below 100 nM.
Turning to `CC(C)[C@@H]1OC(=O)C(C)(C)C/C=C/c2cc3cc(ccc3cn2)[C@@H](C)NC(=O)[C@@H]2CCCN(N2)C(=O)[C@H](C)NC1=O` [Compound 12], in assay [1] (Hepatitis C virus, Huh-7, 72 h), the EC50 was below 1000 nM. Moreover, the inhibition at 1 µM in assay [1] (Hepatitis C virus) turned out to be 100%. Besides, on cyclophilin A, the IC50 was below 100 nM.
Taken in the same sequence, the figures for `CC(C)[C@@H]1NCCC/C=C/c2cc3cc(ccc3cn2)[C@@H](C)OC(=O)[C@@H]2CCCN(N2)C(=O)[C@H](C)NC1=O` [Compound 20] were below 1000 nM, 88% and 101 to 1000 nM.
On the same counts, the results for `CC(C)[C@@H]1NS(=O)(=O)C/C=C/c2cc3cc(ccc3cn2)[C@@H](C)OC(=O)[C@@H]2CCCN(N2)C(=O)[C@H](C)NC1=O` [Compound 21] are below 1000 nM, 71% and 101 to 1000 nM.
Taken in the same sequence, the figures for `CC(C)[C@@H]1OCCC/C=C/c2cc3cc(ccc3cn2)[C@@H](C)OC(=O)[C@@H]2CCCN(N2)C(=O)[C@H](C)NC1=O` [Compound 23] were below 1000 nM, 97% and below 100 nM.
Take `CC(C)[C@@H]1OCCCCCc2cc3cc(ccc3cn2)[C@@H](C)OC(=O)[C@@H]2CCCN(N2)C(=O)[C@H](C)NC1=O` [Compound 24]: in assay [1] (Hepatitis C virus, Huh-7, 72 h), the EC50 was below 1000 nM. For the same compound, in assay [1] (Hepatitis C virus), the inhibition at 1 µM is 83%. For the same compound, at cyclophilin A, the IC50 was below 100 nM.
On the same counts, the results for `CC(C)[C@@H]1NCC(C)(C)/C=C/c2ccc3ccc(nc3c2)[C@@H](C)OC(=O)[C@@H]2CCCN(N2)C(=O)[C@H](C)NC1=O` [Compound 25] are below 1000 nM, 98% and below 100 nM.
Taken in the same sequence, the figures for `CC(C)[C@H]1C(=O)N[C@@H](C)C(=O)N2CCC[C@H](N2)C(=O)O[C@H](C)c2ccc3ccc(cc3n2)/C=C/C(C)(C)CN1C` [Compound 26] were below 1000 nM, 68% and 101 to 1000 nM.
As to `CC(C)[C@@H]1OC(=O)[C@@](C)(CO)/C=C/c2ccc3ccc(nc3c2)[C@@H](C)NC(=O)[C@@H]2CCCN(N2)C(=O)[C@H](C)NC1=O` [Compound 29], the EC50 in assay [1] (Hepatitis C virus, Huh-7, 72 h) is below 1000 nM. The inhibition at 1 µM in assay [1] (Hepatitis C virus) stood at 99%. On cyclophilin A, this compound returned an IC50 below 100 nM.
On the same counts, the results for `CC(C)[C@@H]1OC(=O)[C@@](C)(CO)CCc2ccc3ccc(nc3c2)[C@@H](C)NC(=O)[C@@H]2CCCN(N2)C(=O)[C@H](C)NC1=O` [Compound 30] are below 1000 nM, 84% and below 100 nM.
Consider `CC(C)[C@@H]1N[C@H](C(F)(F)F)C(C)(C)/C=C/c2ccc3ccc(nc3c2)[C@@H](C)OC(=O)[C@@H]2CCCN(N2)C(=O)[C@H](C)NC1=O` [Compound 31], for which the EC50 in assay [1] (Hepatitis C virus, Huh-7, 72 h) was below 1000 nM. Also, the inhibition at 1 µM in assay [1] (Hepatitis C virus) turned out to be 88%. This compound also had an IC50 on cyclophilin A below 100 nM.
On the same counts, the results for `CC(C)[C@@H]1N[C@@H](C(F)(F)F)C(C)(C)/C=C/c2ccc3ccc(nc3c2)[C@@H](C)OC(=O)[C@@H]2CCCN(N2)C(=O)[C@H](C)NC1=O` [Compound 32] are 1100 to 10000 nM, 56% and 101 to 1000 nM.
With `CC(C)[C@@H]1OC(=O)C(C)(C)/C=C/c2ccc3ccc(nc3c2)[C@@H](C)N(C)C(=O)[C@@H]2CCCN(N2)C(=O)[C@H](CO)NC1=O` [Compound 41], in assay [1] (Hepatitis C virus, Huh-7, 72 h), the EC50 is below 1000 nM. Besides, the inhibition at 1 µM in assay [1] (Hepatitis C virus) stood at 98%. The compound further gave an IC50 at cyclophilin A below 100 nM.
For the compound `CC(C)[C@@H]1OC(=O)[C@]2(/C=C/c3ccc4ccc(nc4c3)[C@@H](C)N(C)C(=O)[C@@H]3CCCN(N3)C(=O)[C@H](C)NC1=O)CC[C@H](O)CC2` [Compound 42], the EC50 in assay [1] (Hepatitis C virus, Huh-7, 72 h) was below 1000 nM. Moreover, in assay [1] (Hepatitis C virus), the inhibition at 1 µM came to 96%. On cyclophilin A, this compound came in with an IC50 below 100 nM.
For the compound `CC(C)[C@@H]1OC(=O)C(C)(C)/C=C/c2ccc3ccc(nc3c2)[C@@H](C)N(C)C(=O)[C@@H]2CCCN(N2)C(=O)[C@H](C)NC1=O` [Compound 47], the EC50 in assay [1] (Hepatitis C virus, Huh-7, 72 h) was below 1000 nM. The inhibition at 1 µM in assay [1] (Hepatitis C virus) was determined as 100%. This compound also displayed an IC50 on cyclophilin A below 100 nM.
Taken in the same sequence, the figures for `C[C@@H]1NC(=O)[C@H](C2CCC2)OC(=O)C(C)(C)/C=C/c2ccc3ccc(nc3c2)[C@@H](C)NC(=O)[C@@H]2CCCN(N2)C1=O` [Compound 52] were below 1000 nM, 100% and below 100 nM.
On the same counts, the results for `C[C@@H]1NC(=O)[C@H](C2CC2)OC(=O)C2(/C=C/c3ccc4ccc(nc4c3)[C@@H](C)NC(=O)[C@@H]3CCCN(N3)C1=O)COCOC2` [Compound 53] are below 1000 nM, 99% and below 100 nM.
On the same counts, the results for `CO[C@@H](C)[C@@H]1OC(=O)C(C)(C)/C=C/c2ccc3ccc(nc3c2)[C@@H](C)NC(=O)[C@@H]2CCCN(N2)C(=O)[C@H](C)NC1=O` [Compound 54] are below 1000 nM, 77% and 101 to 1000 nM.
`CC(C)[C@@H]1OC(=O)[C@@](C)(COC(F)F)/C=C/c2ccc3ccc(nc3c2)[C@@H](C)NC(=O)[C@@H]2CCCN(N2)C(=O)[C@H](C)NC1=O` [Compound 55]: in assay [1] (Hepatitis C virus, Huh-7, 72 h), the 50% effective concentration (EC50) is below 1000 nM. Besides, the inhibition at 1 µM in assay [1] (Hepatitis C virus) was 100%. Besides, the IC50 at cyclophilin A was below 100 nM.
Turning to `CC(C)[C@@H]1OC(=O)[C@@](C)(COC(F)(F)F)/C=C/c2ccc3ccc(nc3c2)[C@@H](C)NC(=O)[C@@H]2CCCN(N2)C(=O)[C@H](C)NC1=O` [Compound 56], the EC50 in assay [1] (Hepatitis C virus, Huh-7, 72 h) is below 1000 nM. In addition, in assay [1] (Hepatitis C virus), the inhibition at 1 µM is 99%. This compound also showed an IC50 on cyclophilin A below 100 nM.
Taken in the same sequence, the figures for `CO[C@H](C)[C@@H]1OC(=O)C(C)(C)/C=C/c2ccc3ccc(nc3c2)[C@@H](C)NC(=O)[C@@H]2CCCN(N2)C(=O)[C@H](C)NC1=O` [Compound 60] were below 1000 nM, 96% and below 100 nM.
Regarding `C[C@@H]1NC(=O)[C@H](C)OC(=O)C(C)(C)/C=C/c2ccc3ccc(nc3c2)[C@@H](C)NC(=O)[C@@H]2CCCN(N2)C1=O` [Compound 61], the EC50 in assay [1] (Hepatitis C virus, Huh-7, 72 h) was in the range of 1100 to 10000 nM. For the same compound, the inhibition at 1 µM in assay [1] (Hepatitis C virus) worked out at 46%. Also, the IC50 on cyclophilin A was 101 to 1000 nM.
